Measured values from patent publication US8486947B2, “Treatment of Parkinson's disease, obstructive sleep apnea, dementia with Lewy bodies, vascular dementia with non-imidazole alkylamines histamine H3-receptor ligands” (Bioprojet, priority 2005, dated 2013).

Assays:
[1] = system: patients suffering from obstructive sleep apnea (OSA); experiment: Two clinical studies (single-blinded or double-blinded against placebo, polysomnographical test) in OSA patients; type: in vivo, human; settings: 40 mg p.o. once a day during 3 and 7 days
Description: Two clinical studies were conducted on patients suffering from obstructive sleep apnea (OSA), in a single-blinded or double-blinded trial against placebo with a polysomnographical test on patients.
In both studies, patients were administered with 3-(4-Chlorophenyl)propyl 3-piperidinopropyl ether at 40 mg p.o. once a day during 3 and 7 days.
In both studies, daytime sleepiness was improved in accordance with the Epworth test or according to the frequency of naps or daytime sleepiness occurrences. The average daytime sleepiness could be reduced by up to 50%.

[2] = system: humans suffering from Parkinson; experiment: Combination with an anti-parkinson drug in humans suffering from Parkinson; type: in vivo, human; settings: 40 mg p.o.
Description: (§1) Combinations of a compound of the invention and a anti-parkinson drug were tested on rats and humans suffering from Parkinson.

[3] = system: acetylcholine concentration in brain; experiment: Rat brain microdialysis of acetylcholine, combination with acetylcholinesterase inhibitors; type: in vivo; settings: rats, co-administered with donepezil, rivastigmine or gallanthamine
Description: (§2) Generally, dementia with Lewi bodies is treated with acetylcholinesterase inhibitors such as donepezil, rivastigmine or gallanthamine. These agents increase the acetylcholine concentration in the is brain extracellular space. Combinations of a compound of the invention and one of these agents were tested on rats. The drug was selected from donepezil, rivastigmine or gallanthamine and administered in combination with 3-(4-Chlorophenyl)propyl 3-piperidinopropyl ether in rats.

[4] = system: rats suffering from Parkinson; experiment: Combination with an anti-parkinson drug in rats; type: in vivo, rat
Description: as §1

[5] = system: MPTP-treated cats (experimentally induced parkinsonism); experiment: Sleep-wakefulness patterns by electromyographic and EEG recordings in MPTP-treated parkinsonian cats; type: in vivo, cat; settings: oral dose of 10 mg/kg
Description: As assessed by electromyographic and EEG recordings, treatment with BF 2.-649 (3-(4-Chlorophenyl)propyl 3-piperidinopropyl ether), a potent and selective H3-antagonist, at an oral dose of 10 mg/kg, normalized these sleep-wakefulness patterns.

rats = experiment: Tolerability of the combinations with acetylcholinesterase inhibitors in rats; type: in vivo, rat; settings: combination with donepezil, rivastigmine or gallanthamine
Description: as §2

[6] = system: patients with a diagnostic of OSA; experiment: Single-blind trial against placebo in male patients with obstructive sleep apnea, 3-day treatment; type: in vivo, human; settings: 40 mg oral once a day, 3 days
Description: In a group of 10 male patients with a diagnostic of OSA, confirmed by polysomnography performed during a night in an hospital setting, an Epswoth score above 12 and a body mass index of less than 35, the effect of a 3-day treatment with BF 2.649 (3-(4-Chlorophenyl)propyl 3-piperidinopropyl ether) was assessed in a single-blind trial against placebo, at a fixed oral dose of 40 mg once a day.
In addition the nocturnal sleep duration was not decreased and its quality was improved. This clinical trial establishes for the first time the utility of H3 antagonists/inverse agonists in OSA.

histamine H3-receptor = settings: literature reports; cited from earlier work
PD patients = settings: cited from earlier work
[7] = system: Parkinsonian rat (unilateral 6-hydroxydopamine); settings: 6-hydroxydopamine rat, co-administered with levodopa; cited from earlier work
[8] = combination with anti-parkinson drug
[9] = combination with ropinirole, lisuride, bromocriptine, levodopa or pramiprexole

Compound: Clc1ccc(CCCOCCCN2CCCCC2)cc1 [BF 2.649, 3-(4-Chlorophenyl)propyl 3-piperidinopropyl ether]
- daytime sleepiness (Epworth test, frequency of naps or daytime sleepiness occurrences) [1]: improved
- reduction of average daytime sleepiness [1]: up to 50%
- dose of the anti-parkinson drug needed [2, 8]: allowed lower doses
- motor symptoms [2, 9]: significantly improved
- increase of the acetylcholine concentration in brain (microdialysis) [3]: potentialised
- dose of the anti-parkinson drug needed [4, 8]: allowed lower doses
- motor symptoms [4, 9]: significantly improved
- long periods of sleep (model of excessive daytime sleepiness) [5]: largely suppressed
- sleep-wakefulness patterns ([5]; EMG and EEG recordings): normalized
- tolerability, in particular cardiovascular parameters (rats): well tolerated
- nocturnal sleep duration [6]: not decreased
- nocturnal sleep quality [6]: improved
- occurrence of diurnal sleep episodes [6]: total prevention
- decrease in the number of diurnal somnolence episodes ([6]; all subjects): more than 60%

Compound: CNCCc1ccccn1 [betahistine]
- H3-receptor antagonism potency (histamine H3-receptor): very low potency

Compound: CN(C)CCCSC(=N)N [dimaprit]
- H3-receptor antagonism potency (histamine H3-receptor): very low potency

Compound: NC(=O)C[S+]([O-])C(c1ccccc1)c1ccccc1 (stereo not shown) [modafinil]
- treatment of excessive daytime sleepiness (PD patients): limited success

Compound: c1ccc(C2(N3CCCCC3)CCCCC2)cc1 [phencyclidine]
- H3-receptor antagonism potency (histamine H3-receptor): very low potency

Compound: S=C(NC1CCCCC1)N1CCC(c2cnc[nH]2)CC1 [thioperamide]
- effect of levodopa on turning behaviour upon co-administration [7]: not modified
